Data set [1] deals with c-fos mRNA. The class given is cell-based, mouse. The conditions noted are these: with pyridostigmine 1 mM, 1 hour; BAPTA-AM 1 uM or TTX.
The next data set relates to ChAT or VAChT mRNA. It counts as cell-based, mouse. Conditions: with pyridostigmine 1 mM, 1 hour; BAPTA-AM 1 uM or TTX.
For another data set, the system named is hippocampal slices. Nature of the data set: paired-pulse facilitation in hippocampal slices. The class given is cell-based.
Data set [2] can be described thus: BBB permeability to Evans Blue following stress, adrenaline or atropine (Example 2).
Data set [3] in a line: brain penetration of Evans-blue dye following stress. Conditions: stressed versus control.
For data set [4], the system named is hippocampal slices, CA1 area. The class given is cell-based.
For data set [5], the system named is serum butyrylcholinesterase (BuChE). Nature of the data set: serum BuChE activity after injection in mice. The class given is in vivo, mouse. Conditions: for reduction of serum BuChE activity from normal levels: non-stressed mice, 0.1 mg/kg i.p., 10 minutes, 3 animals/group. The protocol: Symptoms were reported at the end of the study.
Stress Induction: Stress was induced in adult FVB/N mice by 2×4 minute forced swim with a 4 minute rest interval in a 60×60 cm water bath at about 21° C., adapted from Melia et al, [1994]. […] Animals were decapitated 10 minutes following injection, trunk blood was collected [Melia et al, 1994], and cerebral cortex was quickly dissected and homogenized in solution D (10 mM Tris-HCl, pH 7.4, 1M NaCl, 1% Triton-X100, 1 mM EDTA, 1:10 weight/volume)[Neville et al, 1990]

Data set [6] can be described thus: PNS symptoms questionnaire, pyridostigmine in humans.
The conditions of data set [7]: cited from earlier work.
The test system of another data set is AChE mRNA. Put plainly: brain AChE mRNA by RT-PCR after pyridostigmine in mice. It counts as in vivo, mouse. The conditions noted are these: pyridostigmine administration, FIG. 10A lower panel.
The conditions of data set [8]: similar regimen; cited from earlier work.
Data set [9] deals with readthrough (I4) AChEmRNA. Nature of the data set: readthrough (I4) AChEmRNA by RT-PCR / in situ hybridization. It counts as cell-based, mouse. An excerpt: FIG. 7A are photographs showing kinetic follow-up of RT-PCR: Positions of primer pairs specific for the alternatively spliced AChEmRNA subtypes are presented on the left. [Primer pair 1361+/1869- ("E6") detects mRNA encoding the synaptic AChE form; […] ("I4/E5") detects both a 549 bp product of readthrough AChEmRNA and a 432 bp product encoding the GPI-lined red blood cell (RBC) form of the enzyme]. Note that both in vivo stress and in vitro AChE inhibition promoted significant increases of the readthrough (I4) but not the synaptic (E6) or erythrocyte (E5) forms of AChEmRNA. […] Signals were detected using alkaline phosphatase-streptavidin conjugates and Fast Red as a substrate. Shown are cortical layers II-V (upper panels), and magnified pyramidal neurons of cortical layer no. 2 (lower panels).
Selective induction of readthrough AChEmRNA following stress and AChE inhibition were measured using kinetic follow-up of RT-PCR. The positions of primer pairs specific for the alternatively spliced AChEmRNA subtypes are presented on the left of the FIG. 7. [Primer pair 1361+/1869- ("E6") detects mRNA encoding the synaptic AChE form; 1361+/175- ("I4/E5") detects both a 549 bp product of readthrough AChEmRNA and a 432 bp product encoding the GPI-lined red blood cell (RBC) form of the enzyme]. Both in vivo stress (forced swimming) and in vitro AChE inhibition promoted significant increases of the readthrough (I4) but not the synaptic (E6) or erythrocyte (E5) forms of AChEmRNA. […] Signals were detected using alkaline phosphatase-streptavidin conjugates and Fast Red as a substrate. […] 2 (lower panels).

In data set [10] the test system is serum BuChE. Conditions: cited from earlier work.
The test system of another data set is synaptophysin mRNA. Nature of the data set: synaptophysin mRNA control test, in vivo or in brain slices. It counts as cell-based.
For data set [11], the system named is c-fos mRNA. Nature of the data set: brain c-fos mRNA by RT-PCR after pyridostigmine in mice. Conditions: 20 minutes following 2 mg/kg. The class given is in vivo, mouse.
How the values of data set [12] were obtained:
Symptoms were reported at the end of the study. […] Percent inhibition (standard deviation was calculated in comparison to the average activity calculated in non-injected, not-stressed (n=12) and stressed (n=6) animals.
In both human studies each individual was asked to report on a yes/no questionnaire regarding symptoms related to the drug.
This is another data set of the same source.

For data set [13], the system named is serum BuChE. The conditions noted are these: 0.1-0.5 mg/kg; cited from earlier work.
The nature of data set [14]: HRP penetration into brain following swim stress (immunohistochemistry).

Entries after “also recorded” stand apart in the source; their conditions may differ.

Turning to `CC(C)NC[C@H](O)COc1cccc2ccccc12` (racemic) [propanolol], the “time for body temperature to return to normal” value (post injection) is no more than 80 min. Besides, for the setting “pyridostigmine alone or together with propanolol”, the “time of reduction in body temperature” value was no more than 40 min.
Regarding `CC(=O)OCOC(=O)CN(CC(=O)OCOC(C)=O)c1ccccc1OCCOc1ccccc1N(CC(=O)OCOC(C)=O)CC(=O)OCOC(C)=O` [BAPTA-AM], the “anti-cholinesterase-induced change in c-fos mRNA” value with c-fos mRNA [1] is “attenuated; also recorded: suppressed”. Also, the “anti-cholinesterase-induced change in ChAT mRNA” value in the data set with ChAT or VAChT mRNA is listed as “attenuated; also recorded: suppressed”. The “physostigmine-induced prolongation of paired-pulse facilitation” value with hippocampal slices (1 uM physostigmine and 1 uM BAPTA-AM, 1 hour) is reported as “complete prevention”. Moreover, the enhanced paired-pulse facilitation result with hippocampal slices (BAPTA-AM, FIG. 5A) is on record as “prevented”.
`NCCc1ccc(O)c(O)c1` [DA]: the “enhancement of the body temperature reduction by coinjection” value (DA 1.0 mg/kg with pyridostigmine 0.6 mg/kg) was “approximately 0.5 °C”.
With `Cc1cc(-c2ccc(/N=N/c3ccc4c(S(=O)(=O)O)cc(S(=O)(=O)O)c(N)c4c3O)c(C)c2)ccc1/N=N/c1ccc2c(S(=O)(=O)O)cc(S(=O)(=O)O)c(N)c2c1O` [Evans-blue], the “BBB permeability to Evans Blue” value in data set [2] (following stress or 10 minutes after ip adrenaline or atropine) was “enhanced BBB permeability”. Further, in data set [3], the “increase in brain penetration of Evans-blue under stress” value is greater than 10 fold.
Consider `CNCC(O)c1ccc(O)c(O)c1` (centres unmarked) [adrenaline], for which, in data set [2] (administered doses and time course, atropine or adrenaline ip), the “effectiveness in opening the BBB compared with stress” value is “somewhat less effective”.
Turning to `CN1[C@@H]2CC[C@H]1C[C@@H](OC(=O)C(CO)c1ccccc1)C2` (some centres unmarked) [atropine], in data set [4], the “both phases of physostigmine-mediated hyperactivity” value is reported as “blocked” and the “suppression 1 hour after removal of atropine” value is “no suppression took place”.
As for `C[N+](C)(C)CCOC(N)=O` [carbachol], in data set [4], the “amplitude of population spikes” value was “increased the amplitude of population spikes” and the “signal increase by carbamylcholine” value is “dose-dependent increases in signal”.
Consider `CNC(=O)Oc1ccc2c(c1)[C@]1(C)CCN(C)[C@@H]1N2C` [physostigmine], for which, in the data set on hippocampal slices (1 mM physostigmine, 1 hour), the “paired-pulse facilitation responses, 1 hour” value was “prolonged duration and the intense signals of facilitation responses”. The “paired-pulse facilitation responses, 3 hours” value in the data set on hippocampal slices (1 mM physostigmine, 3 hours) is listed as “suppression of both these responses”. In addition, the “reduction of serum BuChE activity from normal levels” value in data set [5] is on record as 22.6+/-5.4%. Besides, in data set [4], the “responsiveness of cholinergic pathways to stimulation” value is given as “prominently muted, approaching that displayed by control slices”.
With `CN(C)C(=O)Oc1ccc[n+](C)c1` [pyridostigmine], in data set [6] (Gulf War, 213 soldiers), the “soldiers reporting PNS symptoms, average” value is recorded as 11.4% and the “soldiers reporting PNS symptoms, range” value is given as 6.1-20.4%. In [6] (peace time, double-blind), the “participants reporting PNS symptoms, average” value amounted to 18.8% and the “participants reporting PNS symptoms, range” value is recorded as 5.5-38.9%. Also, the “CNS functions in primates” value in data set [7] (doses >1 mg/kg) is “perturb CNS functions”. In addition, the “CNS functions in non-stressed primates or humans at peace time” value in data set [7] (non-stressed) is on record as “unaffected CNS functions”. Moreover, the “AChE mRNA product appearance” value in the data set on AChE mRNA is recorded as “earlier appearance”. In data set [8], the “frequency of reported CNS symptoms, increase during the Gulf War” value is recorded as greater than 3 fold. In addition, in data set [9] (pyridostigmine 2 mg/kg), the “subcellular localization of I4-AChEmRNA” value is “shifted from around the nucleus under control conditions to the entire cell bodies and their apical dendrites”. Besides, the “I4-AChEmRNA labeling of cortical layers” value in [9] (pyridostigmine 2 mg/kg, control: layers II+V) is “intensified and included layer III+IV”. Moreover, the “readthrough AChE mRNA labeling of somata and apical dendrites, all cortical layers” value in data set [9] (pyridostigmine exposure) is “intensely labeled”. In addition, in the data set with serum BuChE [10], the “inhibition efficacy of serum butyrylcholinesterase, Gulf War” value is “not modified”. For the same compound, in the data set with synaptophysin mRNA, the “synaptophysin mRNA” value is “no change”. Moreover, the “amount of c-fos and AChE mRNA (earlier appearance of PCR product)” value in the data set on c-fos mRNA [11] was “increase in the amount of c-fos (upper panel) and AChE mRNA (lower panel)”. Moreover, the “reduction of serum BuChE activity from normal levels” value in data set [5] was 16.7+/-6.9%. The “BuChE inhibition in stressed mice” value in data set [5] (stressed mice, 0.1 mg/kg) is on record as “tendency toward limitation of BuChE inhibition”. The “amplitude and rate of rise of evoked population spikes in CA1” value in data set [4] was “increase in the amplitude and rate of rise of evoked population spikes”. In data set [12] (Gulf War, 213 soldiers), the “soldiers reporting CNS symptoms, average” value was found to be 23.6% and the “soldiers reporting CNS symptoms, range” value is 6.2-53.4%. In addition, in data set [12] (peace time, double-blind), the “participants reporting CNS symptoms, average” value is 8.3% and the “participants reporting CNS symptoms, range” value is recorded as 0-16.6%. Moreover, the “inhibition of serum BuChE activity at protective doses” value in the data set with serum BuChE [13] is 15-30%.
Consider “HRP: horseradish peroxidase, used to study changes in the BBB”, for which the “HRP staining of the hippocampus” value in data set [14] (following forced swimming) is on record as “highest number of stained cells; also recorded: strong HRP staining”. Moreover, the “penetration of HRP into brain” value in [14] (forced swimming stress) is listed as “increased penetration”. Further, in data set [14] (non-stressed control), the “HRP staining, Corpus callosum, non-stressed control” value is on record as “little staining”; the “HRP staining, Hippocampus, CA1-2, non-stressed control” value is “no staining”; the “HRP staining, Medial hypothalamus (arcuate nucleus), non-stressed control” value is “+ (diffuse staining)”. Moreover, the “HRP staining, Hippocampus, CA1-2, stressed” value in [14] (stressed) was “staining of cells”. In data set [14] (stressed mice), the “HRP staining of central nucleus of amygdala and paraventricular nucleus of hypothalamus” value is recorded as “absence of HRP staining”.

Values taken from patent US6258780A (priority 1997, dated 2001).
